Paper PMC6627609, “Targeting Quorum Sensing: High-Throughput Screening to Identify Novel LsrK Inhibitors” (International Journal of Molecular Sciences, 2019)
Where a name gives a salt, the structure may show the parent alone. Read-outs that look alike come from different tables or passages of the source.

Experiments:
LsrK = LsrK (Salmonella typhimurium, UniProt Q8ZKQ6); assay: biochemical; assay type: biochemical, S. typhimurium; conditions: for Inhibition (%): 50 µM
His-LsrK [1] = biological target: T1, His-LsrK (Salmonella typhimurium, UniProt Q8ZKQ6); assay: Thermal shift assay; assay type: binding, S. typhimurium; conditions: for shift in the Tm of His-LsrK: mean ± 95% CI
Description: Compounds were added to qPCR plates by Echo acoustic dispenser with a DMSO backfill to maintain a constant final concentration of DMSO in each well (the assay is tolerant up to 8% DMSO with no effect on Tm of LsrK). LsrK protein was added at a concentration of 1 µg per well in a volume of 10 µL with 1× Thermo thermal shift dye or 5× Sypro Orange dye (used for aurin tricarboxylic acid as this compound fluoresces with Thermo dye in 25 mM TEA, 200 µM MgCl2, pH 7.1). Appropriate DMSO-only negative controls and 1 mM ATP/DMSO positive controls were included in each test occasion. Using an Applied Biosystems Quant Studio 5 qPCR machine (Thermo Fisher Scientific, Waltham, MA, USA) the following thermal shift protocol was used: step 1—hold at 25 °C for 1 min; step 2—heat at 0.05 °C/s dissociation then hold at 99 °C for 1 min. Filter setting for Thermo dye: Ex/Em 580/623 nm and for Sypro Orange dye: Ex/Em 470/520 nm.

His-LsrK [2] = biological target: T1, His-LsrK; assay: MST assay; assay type: binding, S. typhimurium; conditions: 95% CI
[3] = test system: His-tagged control peptide or SDS denatured His-LsrK; assay: MST assay, specificity controls; assay type: binding
E. coli LW7 pLW11 = assay: AI-2 QS interference assay; assay type: cell-based
rat = conditions: cited from earlier work
mouse = conditions: ref MicroSource annotations, cited from earlier work
[4] = ip, ref MicroSource annotations
[5] = po, ref MicroSource annotations

T1 sequence (Q8ZKQ6 whole entry): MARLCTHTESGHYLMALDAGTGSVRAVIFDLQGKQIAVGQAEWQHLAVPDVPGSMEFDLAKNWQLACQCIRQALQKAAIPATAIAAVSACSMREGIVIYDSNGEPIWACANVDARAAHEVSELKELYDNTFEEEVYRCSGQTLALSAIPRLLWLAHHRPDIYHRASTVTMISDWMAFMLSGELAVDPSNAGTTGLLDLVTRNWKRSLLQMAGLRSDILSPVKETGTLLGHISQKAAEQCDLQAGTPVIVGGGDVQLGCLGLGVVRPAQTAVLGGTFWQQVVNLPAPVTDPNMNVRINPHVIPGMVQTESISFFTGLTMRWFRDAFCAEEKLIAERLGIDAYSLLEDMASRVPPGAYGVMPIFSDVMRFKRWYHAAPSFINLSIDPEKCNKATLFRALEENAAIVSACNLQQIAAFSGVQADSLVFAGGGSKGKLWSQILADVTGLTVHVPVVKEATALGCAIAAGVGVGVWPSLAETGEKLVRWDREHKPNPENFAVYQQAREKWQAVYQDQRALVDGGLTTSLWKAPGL
LsrK, sequence (Q8ZKQ6 whole entry): as above

SMILES | inhibition at 50 µM (LsrK) [%] | also measured
O=C(O)C1=CC(=C(c2ccc(O)c(C(=O)O)c2)c2ccc(O)c(C(=O)O)c2)C=CC1=O [AURIN TRICARBOXYLIC ACID] | 96 | IC50 (LsrK): 1 µM; shift in the Tm of His-LsrK (His-LsrK [1]; 20 µM): −0.85 ± 0.38 °C; Kd (His-LsrK [2]): 0.408 ± 0.0699 µM; binding in MST to control peptide or SDS denatured His-LsrK [3]: no binding; inhibition of AI-2 mediated QS (E. coli LW7 pLW11; 10 µM, in the presence of PAβN): No significant activity; inhibition of AI-2 mediated QS (E. coli LW7 pLW11; 50 µM, in the presence of PAβN): No significant activity
CC(C)=CCC[C@]1(C)C=Cc2c(O)c3c(c(CC=C(C)C)c2O1)O[C@]12C(=C[C@@H]4C[C@H]1C(C)(C)O[C@@]2(C/C=C(/C)C(=O)O)C4=O)C3=O [GAMBOGIC ACID] | 89 | LD50 (rat; [4]): 88 mg/kg
C[C@]1(OC(=O)/C=C/c2ccccc2)C[C@@H](O)[C@]2(O)C=CO[C@@H](O[C@@H]3O[C@H](CO)[C@@H](O)[C@H](O)[C@H]3O)[C@@H]21 [HARPAGOSIDE] | 108 | IC50 (LsrK): 10 µM; shift in the Tm of His-LsrK (in words) (His-LsrK [1]; dose range of test compound): significant, dose-dependent, positive shift in the Tm; Kd (His-LsrK [2]): 18.4 ± 0.9 µM; binding in MST to control peptide or SDS denatured His-LsrK [3]: No binding; inhibition of AI-2 mediated QS (E. coli LW7 pLW11; 10 µM, in the presence of PAβN): only minor; inhibition at 50 µM (E. coli LW7 pLW11; Escherichia coli, 50 µM, in the presence of PAβN, read-out: inhibition of AI-2 mediated QS): ~50%; IC50 (E. coli LW7 pLW11; Escherichia coli, dose-response in the presence of PAβN, read-out: IC50 AI-2 QS inhibition): 14 µM
CC(C)[C@@H]1NC(=O)[C@H](C)OC(=O)[C@@H](C(C)C)NC(=O)[C@@H](C(C)C)OC(=O)[C@H](C(C)C)NC(=O)[C@H](C)OC(=O)[C@@H](C(C)C)NC(=O)[C@@H](C(C)C)OC(=O)[C@H](C(C)C)NC(=O)[C@H](C)OC(=O)[C@@H](C(C)C)NC(=O)[C@@H](C(C)C)OC1=O [VALINOMYCIN] | 1 | LD50 (rat; [5]): 4 mg/kg
C=C1CC[C@H](O)C/C1=C/C=C1\CCC[C@]2(C)[C@@H]([C@H](C)/C=C/[C@H](C)C(C)C)CC[C@@H]12 [ERGOCALCIFEROL] | 56 | LD50 (rat; in vivo, po): 56 mg/kg
C[C@H](CCC(=O)O)[C@H]1CC[C@H]2[C@@H]3CC[C@@H]4C[C@H](O)CC[C@]4(C)[C@H]3CC[C@]12C [LITHOCHOLIC ACID] | 2 | LD50 (mouse; po): 3900 mg/kg
CCCCCCCCCCCCCCCCC(C(=O)O)C(O)(CC(=O)O)C(=O)O (centres unmarked) [AGARIC ACID] | 157 | IC50 (LsrK): 7 µM; shift in the Tm of His-LsrK (His-LsrK [1]; 10 µM): −4.7 ± 0.70 °C
CC[C@@H](C)C(=O)O[C@H]1[C@H](O)[C@H]2[C@@H](CN3C[C@@H](C)CC[C@H]3[C@@]2(C)O)[C@@H]2C[C@]34O[C@]5(O)[C@@H](OC(=O)[C@@](C)(O)CC)CC[C@@]3(C)[C@@H]5[C@@H](OC(C)=O)[C@@H](OC(C)=O)[C@H]4[C@@]21O [PROT[…]] | 1 | LD50 (rat; [5]): 5 mg/kg
CN[C@@H]1[C@@H](O[C@H]2O[C@H](CO)[C@@H](N)[C@H](O)[C@H]2O)OC2C[C@@H](N)[C@@H](O[C@H]3[C@H](O)[C@@H](O)[C@H](N)C[C@@H]3N)OC2[C@@H]1O (some centres unmarked) [APRAMYCIN] | 3 | LD50 (mouse; iv): 280 mg/kg
Cn1nnnc1SCC1=C(C(=O)O)N2C(=O)[C@@H](NC(=O)[C@H](O)c3ccccc3)[C@H]2SC1 [CEFAMANDOLE SODIUM] | 15 | –
COC(=O)c1c(C)c2c(c(C)c1O)OC(=O)c1c(C)c(Cl)c(O)c(Cl)c1O2 [LEOIDIN] | 83 | –
C=CC(C1=CC(=O)C=CC1=O)c1ccccc1 (centres unmarked) [DALBERGIONE] | 91 | –
CC(=O)O[C@H]1CCC2(C)C3=C(CCC2C1(C)C)[C@@]1(C)CC[C@@H](C(C)CCC=C(C)C)[C@]1(C)CC3 (some centres unmarked) [EUPHOL ACETATE] | – | Inhibition (%) (LsrK): 1
CCCCOc1cc(CC2CNC(=O)N2)ccc1OC (centres unmarked) [4-(3-BUTOXY-4-METHOXYBENZYL)IMIDAZOLIDIN-2-ONE] | – | Inhibition (%) (LsrK): 1
C=CC1=C(C(=O)O)N2C(=O)[C@@H](NC(=O)/C(=N\O)c3csc(N)n3)[C@H]2SC1 | 17 | –
CCCCC(=O)Oc1ccccc1C(=O)O [VALERYL SALYCILATE] | 1 | –
CC(C)(O)[C@@H]1[C@H]2OC(=O)[C@@H]1[C@]1(O)C[C@H]3O[C@]34C(=O)O[C@H]2[C@]14C [PICROTIN] | 1 | –
Cl.O=c1[nH]oc2c1CCNC2 [GABOXADOL HYDROCHLORIDE] | – | Inhibition (%) (LsrK): 1
O=c1c(-c2ccccc2)coc2cc(O)cc(O)c12 [5.7-DIHYDROXYISOFLAVONE] | – | Inhibition (%) (LsrK): 106
CC(=O)O[C@H]1CC[C@]2(C)[C@H]3CC[C@@]4(C)[C@H](c5ccoc5)OC(=O)[C@H]5O[C@]54[C@]3(C)[C@H](OC(C)=O)C[C@H]2C1(C)C [3beta-ACETOXYDEOXODIHYDROGEDUNIN] | – | Inhibition (%) (LsrK): 2
CC(C)NCC(O)c1cc(O)cc(O)c1 (centres unmarked) [METAPROTERENOL] | 3 | –
C[C@@H]1CC[C@@]23CCC4(C)[C@@](C=CC5[C@@]6(C)CCC(=O)C(C)(C)C6CC[C@]54C)(OC2=O)C3[C@H]1C (some centres unmarked) [3-OXOURSAN (28-13)OLIDE] | 1 | –
NCc1ccc(S(N)(=O)=O)cc1 [MAFENIDE HYDROCHLORIDE] | 1 | –

SMILES | inhibition at 50 µM (LsrK) [%] | also measured
CC(COc1ccccc1)N(CCCl)Cc1ccccc1 (centres unmarked) [PHENOXYBENZAMINE HYDROCHLORIDE] | 1 | –
CN1CCOC(c2ccccc2)c2ccccc2C1 (centres unmarked) [NEFOPAM] | 1 | –
O=c1cc(-c2ccc(O)cc2)oc2ccc(O)cc12 [6.4'-DIHYDROXYFLAVONE] | – | Inhibition (%) (LsrK): 0
NC(=O)C[S+]([O-])C(c1ccccc1)c1ccccc1 (centres unmarked) [MODAFINIL] | 1 | –
Oc1ccc(O)cc1 [HYDROQUINONE] | 0 | –
CO[C@H]1/C=C/O[C@@]2(C)Oc3c(C)c(O)c4c(O)c(c(/C=N/N5CCN(C)CC5)c(O)c4c3C2=O)NC(=O)/C(C)=C\C=C\[C@H](C)[C@H](O)[C@@H](C)[C@@H](O)[C@@H](C)[C@H](OC(C)=O)[C@@H]1C [RIFAMPIN] | 18 | –
Cn1cnc2c1c(=O)[nH]c(=O)n2C [THEOBROMINE] | 0 | –
C=CC[C@]1(O)CC[C@H]2[C@@H]3CCC4=CC(=O)CCC4=C3C=C[C@@]21C [ALTRENOGEST] | 0 | –
CC1=C(/C=C/C(C)=C/C=C/C(C)=C/C=C/C=C(C)/C=C/C=C(C)/C=C/C2=C(C)C(=O)CCC2(C)C)C(C)(C)CCC1=O [CANTHAXANTHIN (euglenanone), CANTHAXANTHIN] | – | Inhibition (%) (LsrK): 2
C=C[C@@]1(C)CC(=O)[C@]2(O)[C@@]3(C)[C@@H](O)CCC(C)(C)[C@@H]3[C@H](O)[C@H](OC(C)=O)[C@@]2(C)O1 [COLFORSIN] | 1 | –
O=c1oc2ccccc2c(O)c1Cc1c(O)c2ccccc2oc1=O [DICUMAROL] | 4 | –
CC(=O)N(c1onc(C)c1C)S(=O)(=O)c1ccc(N)cc1 [SULFISOXAZOLE ACETYL] | 4 | –
CCCCCC1C(=O)CCC1CC(=O)O (centres unmarked) [DIHYDROJASMONIC ACID] | 1 | –
CC(C)[C@H]1CC[C@H](C(=O)N[C@H](Cc2ccccc2)C(=O)O)CC1 [NATEGLINIDE] | 1 | –
COC(=O)N/N=C/c1c[n+]([O-])c2ccccc2[n+]1[O-] [CARBADOX] | 3 | –
C=C1C(=O)O[C@@H]2C[C@@]3(C)CCC[C@H](C)C3=C[C@H]12 [HELENINE] | 2 | –
C[C@@H]1CC[C@@]2(OC1)O[C@H]1C[C@H]3[C@@H]4CC=C5C[C@@H](O)CC[C@]5(C)[C@H]4CC[C@]3(C)[C@H]1[C@@H]2C [DIOSGENIN] | 0 | LD50 (rat; [4]): 4872 mg/kg; LD50 (mouse; po): > 8000 mg/kg
COC1=C(O)C(=O)c2c(cc3oc(C(C)=O)c(O)c3c2O)C1=O [RHO[…]] | 22 | –
CC[C@@]1(O)C[C@H](O[C@H]2C[C@H](N(C)C)[C@H](O)[C@H](C)O2)c2c(cc3c(c2O)C(=O)c2c(O)ccc(O)c2C3=O)[C@H]1C(=O)OC [PYRROMYCIN] | 1 | –
C[C@H](N)[C@H](O)c1ccc(O)c(O)c1 [LEVONORDEFRIN] | 123 | –
CCCCC1C(=O)N(c2ccccc2)N(c2ccc(O)cc2)C1=O (centres unmarked) [OXYPHENBUTAZONE] | 93 | –
CC(=O)Oc1ccc(/C=C/c2cc(OC(C)=O)cc(OC(C)=O)c2)cc1 [TRIACETYLRESVERATROL] | 1 | –
